Laboratory results as given in US20180370927A1, “MICROBIOCIDAL OXADIAZOLE DERIVATIVES” (SYNGENTA PARTICIPATIONS AG, priority 2015, published 2018).

What was measured:
Phakopsora pachyrhizi = Phakopsora pachyrhizi / soybean / leaf disc preventative (Asian soybean rust); assay type: in vivo; conditions: foliar, 200 ppm in the applied formulation, soybean leaf disks, assessed 12 to 14 days after application, read-out: disease control compared to untreated control leaf disks
Experimental: Leaf disks or leaf segments of various plant species are cut from plants grown in a greenhouse. The cut leaf disks or segments are placed in multiwell plates (24-well format) onto water agar. The leaf disks are sprayed with a test solution before (preventative) or after (curative) inoculation. Compounds to be tested are prepared as DMSO solutions (max. 10 mg/mL) which are diluted to the appropriate concentration with 0.025% Tween20 just before spraying. The inoculated leaf disks or segments are incubated under defined conditions (temperature, relative humidity, light, etc.) according to the respective test system. A single evaluation of disease level is carried out 3 to 14 days after inoculation, depending on the pathosystem. Percent disease control relative to the untreated check leaf disks or segments is then calculated.
Example 3: Fungicidal Activity Against Phakopsora pachyrhizi/Soybean/Leaf Disc Preventative (Asian Soybean Rust)
Soybean leaf disks are placed on water agar in multiwell plates (24-well format) and sprayed with the formulated test compound diluted in water. One day after application leaf discs are inoculated by spraying a spore suspension on the lower leaf surface. After an incubation period in a climate cabinet of 24-36 hours in darkness at 20° C. and 75% relative humidity leaf disc are kept at 20° C. with 12 hours light/day and 75% relative humidity. The activity of a compound is assessed as percent disease control compared to untreated when an appropriate level of disease damage appears in untreated check leaf disks (12 to 14 days after application).
The following compounds at 200 ppm in the applied formulation give at least 80% disease control in this test when compared to untreated control leaf disks under the same conditions, which show extensive disease development.

[1] = system: Puccinia recondita f. Sp. Tritici; assay: Puccinia recondita f. sp. tritici / wheat / leaf disc preventative (brown rust); assay type: in vivo; conditions: foliar, 200 ppm in the applied formulation, wheat leaf segments, preventative, assessed 7 to 9 days after application, read-out: disease control compared to untreated control leaf disks
Method in brief: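 Wheat cv. Kanzler leaf segments on agar sprayed with formulated compound in water, inoculated with rust spores 1 day later. Incubated at 19° C, 75% rh, 12 h light/12 h dark; percent disease control versus untreated scored 7 to 9 days after application; tested at 200 ppm.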

[2] = system: Puccinia recondita f. Sp. Tritici; assay: Puccinia recondita f. sp. tritici / wheat / leaf disc curative (brown rust); assay type: in vivo; conditions: foliar, 200 ppm in the applied formulation, wheat leaf segments, curative (applied 1 day after inoculation), assessed 6 to 8 days after application, read-out: disease control compared to untreated control leaf disks
Method in brief: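 Curative treatment: formulated compound in water was applied 1 day post-inoculation to spore-inoculated wheat cv. Kanzler segments held on agar. Segments stayed at 19° C and 75% relative humidity (12 h photoperiod after application), and disease control relative to untreated checks was assessed 6 to 8 days later.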

[3] = system: Glomerella lacenarium (Colletotrichum lacenarium); assay: Glomerella lacenarium (Colletotrichum lacenarium) liquid culture / cucumber / preventative (anthracnose); assay type: cell-based; conditions: 20 ppm in the applied formulation, liquid culture in PDB, 24° C., 3 to 4 days after application, read-out: disease control (inhibition of growth, photometric) compared to untreated control
Method in brief: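 At 20 ppm in the applied formulation, compounds were mixed with fungal spores in potato dextrose broth and held at 24° C. After 3–4 days, photometric growth measurement gave percent antifungal activity relative to untreated control.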

CCN(Cc1ccc(-c2noc(C(F)(F)F)n2)cc1)C(=O)C(=O)C(C)C [Compound 1.96, N-ethyl-3-methyl-2-oxo-N-[[4-[5-(trifluoromethyl)-1,2,4-oxadiazol-3-yl]phenyl]methyl]butanamide]
≥ 80%: pest or weed control at 200 ppm (Phakopsora pachyrhizi) | pest or weed control at 200 ppm [1] | pest or weed control at 200 ppm [2] | inhibition at 20 ppm [3]

O=C(NCc1ccc(-c2noc(C(F)(F)F)n2)cc1F)C(=O)c1ccco1 [Compound 1.77, N-[[2-fluoro-4-[5-(trifluoromethyl)-1,2,4-oxadiazol-3-yl]phenyl]methyl]-2-(2-furyl)-2-oxo-acetamide]
≥ 80%: pest or weed control at 200 ppm (Phakopsora pachyrhizi) | pest or weed control at 200 ppm [1] | pest or weed control at 200 ppm [2] | inhibition at 20 ppm [3]

CC(=O)C(=O)NCc1c(F)cc(-c2noc(C(F)(F)F)n2)cc1F [Compound 1.87, N-[[2,6-difluoro-4-[5-(trifluoromethyl)-1,2,4-oxadiazol-3-yl]phenyl]methyl]-2-oxo-propanamide]
≥ 80%: pest or weed control at 200 ppm (Phakopsora pachyrhizi) | pest or weed control at 200 ppm [1] | pest or weed control at 200 ppm [2] | inhibition at 20 ppm [3]

O=C(NCc1c(F)cc(-c2noc(C(F)(F)F)n2)cc1F)C(=O)c1ccco1 [Compound 1.88, N-[[2,6-difluoro-4-[5-(trifluoromethyl)-1,2,4-oxadiazol-3-yl]phenyl]methyl]-2-(2-furyl)-2-oxo-acetamide]
≥ 80%: pest or weed control at 200 ppm (Phakopsora pachyrhizi) | pest or weed control at 200 ppm [1] | pest or weed control at 200 ppm [2] | inhibition at 20 ppm [3]

CCCC(=O)C(=O)N(Cc1ccc(-c2noc(C(F)(F)F)n2)cc1)C1CC1 [Compound 1.4, N-cyclopropyl-2-oxo-N-[[4-[5-(trifluoromethyl)-1,2,4-oxadiazol-3-yl]phenyl]methyl]pentanamide]
≥ 80%: pest or weed control at 200 ppm (Phakopsora pachyrhizi) | pest or weed control at 200 ppm [1] | pest or weed control at 200 ppm [2] | inhibition at 20 ppm [3]

CCN(Cc1ccc(-c2noc(C(F)(F)F)n2)cc1)C(=O)C(C)=O [Compound 1.18, N-ethyl-2-oxo-N-[[4-[5-(trifluoromethyl)-1,2,4-oxadiazol-3-yl]phenyl]methyl]propanamide]
≥ 80%: pest or weed control at 200 ppm (Phakopsora pachyrhizi) | pest or weed control at 200 ppm [1] | pest or weed control at 200 ppm [2] | inhibition at 20 ppm [3]

COCCN(Cc1ccc(-c2noc(C(F)(F)F)n2)cc1)C(=O)C(C)=O [Compound 1.10, N-(2-methoxyethyl)-2-oxo-N-[[4-[5-(trifluoromethyl)-1,2,4-oxadiazol-3-yl]phenyl]methyl]propanamide]
≥ 80%: pest or weed control at 200 ppm (Phakopsora pachyrhizi) | pest or weed control at 200 ppm [1] | pest or weed control at 200 ppm [2] | inhibition at 20 ppm [3]

NC(=O)C(=O)N(O)Cc1ccc(-c2noc(C(F)(F)F)n2)cc1 [Compound 4.91, N′-hydroxy-N′-[[4-[5-(trifluoromethyl)-1,2,4-oxadiazol-3-yl]phenyl]methyl] oxamide]
≥ 80%: pest or weed control at 200 ppm (Phakopsora pachyrhizi) | pest or weed control at 200 ppm [1] | pest or weed control at 200 ppm [2] | inhibition at 20 ppm [3]

CON(Cc1ccc(-c2noc(C(F)(F)F)n2)cc1F)C(=O)C(=O)N(C)C [Compound 4.95, N′-[[2-fluoro-4-[5-(trifluoromethyl)-1,2,4-oxadiazol-3-yl]phenyl]methyl]-N′-methoxy-N,N-dimethyl-oxamide]
≥ 80%: pest or weed control at 200 ppm (Phakopsora pachyrhizi) | pest or weed control at 200 ppm [1] | pest or weed control at 200 ppm [2] | inhibition at 20 ppm [3]

CC(C)CC(=O)C(=O)NCc1ccc(-c2noc(C(F)(F)F)n2)c(F)c1 [Compound 1.43, N-[[3-fluoro-4-[5-(trifluoromethyl)-1,2,4-oxadiazol-3-yl]phenyl]methyl]-4-methyl-2-oxo-pentanamide]
≥ 80%: pest or weed control at 200 ppm (Phakopsora pachyrhizi) | pest or weed control at 200 ppm [1] | pest or weed control at 200 ppm [2] | inhibition at 20 ppm [3]

CN(C)C(=O)C(=O)NCc1ccc(-c2noc(C(F)(F)F)n2)cc1Cl [Compound 4.96, N-[[2-chloro-4-[5-(trifluoromethyl)-1,2,4-oxadiazol-3-yl]phenyl]methyl]-N′,N′-dimethyl-oxamide]
≥ 80%: pest or weed control at 200 ppm (Phakopsora pachyrhizi) | pest or weed control at 200 ppm [1] | pest or weed control at 200 ppm [2] | inhibition at 20 ppm [3]

CC(C)(C)C(=O)C(=O)NCc1ccc(-c2noc(C(F)(F)F)n2)cc1 [Compound 1.52, 3,3-dimethyl-2-oxo-N-[[4-[5-(trifluoromethyl)-1,2,4-oxadiazol-3-yl]phenyl]methyl]butanamide]
≥ 80%: pest or weed control at 200 ppm (Phakopsora pachyrhizi) | pest or weed control at 200 ppm [1] | pest or weed control at 200 ppm [2] | inhibition at 20 ppm [3]

CN(C)C(=O)C(=O)NCc1ccc(-c2noc(C(F)(F)F)n2)c(F)c1F [Compound 4.94, N-[[2,3-difluoro-4-[5-(trifluoromethyl)-1,2,4-oxadiazol-3-yl]phenyl]methyl]-N',N'-dimethyl-oxamide]
≥ 80%: pest or weed control at 200 ppm (Phakopsora pachyrhizi) | pest or weed control at 200 ppm [1] | pest or weed control at 200 ppm [2] | inhibition at 20 ppm [3]

CC(C)N(Cc1ccc(-c2noc(C(F)(F)F)n2)cc1)C(=O)C(N)=O [Compound 4.89, N′-isopropyl-N′-[[4-[5-(trifluoromethyl)-1,2,4-oxadiazol-3-yl]phenyl]methyl] oxamide]
≥ 80%: pest or weed control at 200 ppm (Phakopsora pachyrhizi) | pest or weed control at 200 ppm [1] | pest or weed control at 200 ppm [2] | inhibition at 20 ppm [3]

CCCC(=O)C(=O)N(Cc1ccc(-c2noc(C(F)(F)F)n2)cc1)OC [Compound 1.3, N-methoxy-2-oxo-N-[[4-[5-(trifluoromethyl)-1,2,4-oxadiazol-3-yl]phenyl]methyl]pentanamide]
≥ 80%: pest or weed control at 200 ppm (Phakopsora pachyrhizi) | pest or weed control at 200 ppm [1] | pest or weed control at 200 ppm [2] | inhibition at 20 ppm [3]

CN(C)C(=O)C(=O)NCc1ccc(-c2noc(C(F)(F)F)n2)c(F)c1 [Compound 4.93, N-[[3-fluoro-4-[5-(trifluoromethyl)-1,2,4-oxadiazol-3-yl]phenyl]methyl]-N',N'-dimethyl-oxamide]
≥ 80%: pest or weed control at 200 ppm (Phakopsora pachyrhizi) | pest or weed control at 200 ppm [1] | pest or weed control at 200 ppm [2] | inhibition at 20 ppm [3]

O=C(NCc1ccc(-c2noc(C(F)(F)F)n2)c(F)c1)C(=O)c1ccco1 [Compound 1.79, N-[[3-fluoro-4-[5-(trifluoromethyl)-1,2,4-oxadiazol-3-yl]phenyl]methyl]-2-(2-furyl)-2-oxo-acetamide]
≥ 80%: pest or weed control at 200 ppm (Phakopsora pachyrhizi) | pest or weed control at 200 ppm [1] | pest or weed control at 200 ppm [2] | inhibition at 20 ppm [3]

CN(C)C(=O)C(=O)NCc1ccc(-c2noc(C(F)(F)F)n2)cc1F [Compound 4.92, N-[[2-fluoro-4-[5-(trifluoromethyl)-1,2,4-oxadiazol-3-yl]phenyl]methyl]-N',N'-dimethyl-oxamide]
≥ 80%: pest or weed control at 200 ppm (Phakopsora pachyrhizi) | pest or weed control at 200 ppm [1] | pest or weed control at 200 ppm [2] | inhibition at 20 ppm [3]

CON(C)C(=O)C(=O)N(Cc1ccc(-c2noc(C(F)(F)F)n2)cc1)C1CC1 [Compound 4.105, N′-cyclopropyl-N-methoxy-N-methyl-N′-[[4-[5-(trifluoromethyl)-1,2,4-oxadiazol-3-yl]phenyl]methyl] oxamide]
≥ 80%: pest or weed control at 200 ppm (Phakopsora pachyrhizi) | pest or weed control at 200 ppm [1] | pest or weed control at 200 ppm [2] | inhibition at 20 ppm [3]

O=C(NCc1ccc(-c2noc(C(F)(F)F)n2)cc1)C(=O)c1ccco1 [Compound 1.82, 2-(2-furyl)-2-oxo-N-[[4-[5-(trifluoromethyl)-1,2,4-oxadiazol-3-yl]phenyl]methyl]acetamide]
≥ 80%: pest or weed control at 200 ppm (Phakopsora pachyrhizi) | pest or weed control at 200 ppm [1] | pest or weed control at 200 ppm [2] | inhibition at 20 ppm [3]

CN(Cc1ccc(-c2noc(C(F)(F)F)n2)cc1)C(=O)C(=O)C1CC1 [Compound 1.94, 2-cyclopropyl-N-methyl-2-oxo-N-[[4-[5-(trifluoromethyl)-1,2,4-oxadiazol-3-yl]phenyl]methyl]acetamide]
≥ 80%: pest or weed control at 200 ppm (Phakopsora pachyrhizi) | pest or weed control at 200 ppm [1] | pest or weed control at 200 ppm [2] | inhibition at 20 ppm [3]
